The text below walks through data of article PMC9971260 (Scientific Reports, 2023).

The structures appear in SMILES notation. Where a name gives a salt, the structure may show the parent alone.

In series [1] the test system is postoperative pain. As to the kind of experiment: post-treatment of postoperative pain (incisional model). The class given is in vivo, mouse. Particulars: mice, 5 mg/kg SC daily Days 1 to 7. The procedure:
Thirty-one (31) mice were randomly assigned to one of four treatment groups: vehicle (5 μL/g, SC) (n = 8), UK4b (20 mg/kg, SC) (n = 7), UK4b (10 mg/kg, SC) (n = 8), and morphine (5 mg/kg, SC) (n = 8). This experiment took place over 14 days. […] Similarly, four days before surgery, the animals began acclimation for one hour per day to the mechanical sensitization (allodynia) apparatus before assessment. Mechanical sensitization was measured with a series of 8 von Frey fiber filaments (0.008 g (1.65); 0.02 g (2.36); 0.07 g (2.83); 0.16 g (3.22); 0.4 g (3.61); 1.0 g (4.08); 2.0 g (4.31); 6.0 g (4.74); Stoelting, Wood Dale, IL) using a modified up-down method. For the algorithm, each filament is applied to the plantar surface of the hind paw for five times. If the mouse retracts that hind paw at least three times, that is considered a positive response to the filament, and the next applied filament would be weaker than the last. If the animal retracts the hind paw fewer than three times, this is a negative response, and the next stronger filament is applied. […] Two hours after surgery was complete, PWL was assessed, followed by measurement of mechanical sensitization threshold. […] On Day 9, 48 h after the final treatment was administered on Day 7, PWL and mechanical sensitization threshold were assessed to follow-up with the animals after treatment ceased. […]

For series [2], the system named is postoperative pain. As to the kind of experiment: pre- and post-treatment of postoperative pain (incisional model). Format: in vivo, mouse. Particulars: mice, pretreatment 5 mg/kg SC 2 h before surgery. Here is the method: Twenty-eight (28) mice were randomly assigned to one of four treatment groups: vehicle (5 μL/g, SC) (n = 8), UK4b (20 mg/kg, SC) (n = 7), UK4b (10 mg/kg, SC) (n = 7), and morphine (5 mg/kg, SC) (n = 6). This experiment took place over 14 days. Animals underwent the same acclimation and baseline measurement for PWL and mechanical sensitization threshold as described in the section above on Days -4 to -1. On Day 0, surgery was performed as described above, but each animal received their first treatment two hours prior to surgery (-2 h). Two hours after surgery was complete, PWL was assessed, followed by measurement of mechanical sensitization threshold. Treatment continued once daily from Days 1 through 7. Two hours after drug treatment, PWL and mechanical sensitization threshold are measured. On Day 9, 48 h after the final treatment was administered on Day 7, PWL and mechanical threshold are assessed to follow-up with the animals after treatment ceases. The PWL (seconds) was graphed relative to time (days since surgery). Mechanical sensitization thresholds were graphed as 50% threshold (grams) versus time (days since surgery).

Series [3] has as its system carrageenan-induced hyperalgesia. As to the kind of experiment: post-treatment of carrageenan-induced hyperalgesia. Format: in vivo, rat. To be noted: rats. The procedure: The PWL of untreated rats from the pre-treatment carrageenan study were used as a negative control in this experiment, as well. […] One hind paw was randomly selected to be the observed paw for the entirety of the experiment. Prior to administration of a treatment, the baseline (-23 h) PWL was assessed as described above.
Twenty-three hours after administration of carrageenan, PWL was assessed (23 h) to confirm induction of hyperalgesia, and to establish the PWL prior to treatment. […] PWL was assessed relative to administration of treatment ([…], 48, 72, and 96 h), and two PWL measurements were taken at each time point for each rat.

Series [4] relates to carrageenan-induced paw edema and hyperalgesia. As to the kind of experiment: pre-treatment of carrageenan-induced paw edema and hyperalgesia. To be noted: rats. A general note: The carrageenan paw model is a standard test of acute inflammation.
The next series has as its system COX-2. To be noted: cited from earlier work.
The test system of another series is COX-1. Particulars: read-out: IC50 against COX-1; cited from earlier work.
On the set-up of series [5]: method as in earlier work. Particulars: cited from earlier work.
The conditions of series [6]: mouse, in vivo, 50 mg/kg; cited from earlier work.

As for `CN1CC[C@]23c4c5ccc(O)c4O[C@H]2[C@@H](O)C=C[C@H]3[C@H]1C5` [morphine], in the series with postoperative pain [1], the “postoperative allodynia (50% mechanical threshold)” value is “significantly attenuated” and the “postoperative hyperalgesia (PWL)” value is reported as “significantly attenuated”. Further, in the series on postoperative pain [2], the “postoperative allodynia (50% mechanical threshold) on Day 0” value is “did not significantly attenuate the postoperative allodynia” and the “postoperative hyperalgesia (PWL) on Day 0” value is on record as “significantly attenuating the postoperative hyperalgesia”.

With `COc1ccc2c3c1O[C@H]1C(=O)CC[C@@]4(O)[C@@H](C2)N(C)CC[C@]314` [oxycodone, Oxycodone hydrochloride], the “carrageenan-induced hyperalgesia (PWL), post-treatment” value in series [3] (5 mg/kg IP 23 h after carrageenan) was “significantly relieved the pain”. Further, the “carrageenan-induced hyperalgesia (PWL)” value was “still significant pain” in series [4] (pretreatment 5 mg/kg IP, at and after 23 h); “effectively relieved the pain” in series [4] (pretreatment 5 mg/kg IP, within six hours after carrageenan injection).

With `CS(=O)(=O)c1ccc(C2=C(c3ccccc3)C(=O)OC2)cc1` [rofecoxib], in the series on COX-2, the “IC50 against COX-2 (in words)” value is listed as “low-nanomolar”.

On to `CC(C)Cc1ccc(C(C)C(=O)O)cc1` (stereo not shown) [ibuprofen], for which the IC50 in the series with COX-1 was […].

Turning to `CCCCC[C@H](O)/C=C/[C@H]1[C@H](O)CC(=O)[C@@H]1C/C=C\CCCC(=O)O` [PGE2, prostaglandin E2], the plasma half-life in series [5] is 2.5 to 5 min.

Turning to `NCC1(CC(=O)O)CCCCC1` [gabapentin], in series [3] (100 mg/kg IP 23 h after carrageenan), the “carrageenan-induced hyperalgesia (PWL), post-treatment” value is reported as “significantly relieved the pain”. Besides, the “carrageenan-induced hyperalgesia (PWL)” value in series [4] (pretreatment 100 mg/kg IP 1 h or 4 h before carrageenan) was “similarly relieved the hyperalgesia, but 100 mg/kg gabapentin was not as effective as 10 mg/kg UK4b”.

With `Cc1ccc(-c2cc(C(F)(F)F)nn2-c2ccc(S(N)(=O)=O)cc2)cc1` [celecoxib], in series [6], the stomach tissue damage entry is recorded as “caused stomach tissue damage in all mice”.

Broadly, the IC50 is the midpoint of a concentration-inhibition curve.
